The values below come from patent US6333176A (Degussa Aktiengesellschaft, priority 1994, dated 2001).

Peptide text beside a SMILES is read from it. * marks the point of attachment. Cbz = O=C(OCc1ccccc1)*

For assay [1], the system named is peptide amidase from flavedo of oranges. The settings on record: cited from earlier work.
Assay [2] concerns the target T1, peptide amidase from Xanthomonas maltophilia (Stenotrophomonas maltophilia, UniProt Q8RJN5).
T1 construct: wild type, not recombinant
T1 sequence (Q8RJN5 34-540): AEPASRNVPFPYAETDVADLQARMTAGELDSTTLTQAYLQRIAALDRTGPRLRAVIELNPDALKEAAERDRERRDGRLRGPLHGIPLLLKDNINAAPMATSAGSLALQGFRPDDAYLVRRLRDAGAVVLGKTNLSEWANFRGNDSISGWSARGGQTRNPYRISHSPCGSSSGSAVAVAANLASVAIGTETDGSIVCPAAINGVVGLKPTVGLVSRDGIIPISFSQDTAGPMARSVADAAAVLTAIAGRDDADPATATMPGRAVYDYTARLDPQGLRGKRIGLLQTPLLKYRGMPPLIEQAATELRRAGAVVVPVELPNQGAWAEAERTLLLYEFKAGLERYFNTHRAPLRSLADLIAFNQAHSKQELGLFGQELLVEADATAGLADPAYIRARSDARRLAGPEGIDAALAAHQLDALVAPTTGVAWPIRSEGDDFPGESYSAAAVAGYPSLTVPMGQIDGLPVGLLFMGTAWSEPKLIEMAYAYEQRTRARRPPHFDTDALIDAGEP
Briefly: biochemical. The class given is biochemical.

For assay [3], the target named is T1, peptide amidase from Xanthomonas maltophilia. As to the kind of experiment: Enzyme kinetics of peptide amidase. It is filed as biochemical. The settings on record: substrate 0.4 to 20 mM, 50 mM tris/HCl pH 7.5, 2 hours, 30° C. As for the experimental part: The dependency of the reaction rate of peptide amidase from Xanthomonas maltophilia on the substrate concentration (Z-Gly-Tyr-NH2) was determined and the kinetic parameters determined from the data according to Marquardt. To this end, 50 μl enzyme solution a 27 μg BSAeq/ml were compounded with 400 μl 50 mM tris/HCl buffer, pH 7.5. The reaction was started by adding Z-Gly-Tyr-NH2 as substrate. The substrate was present in the reaction batches in a concentration range of 0.4 to 20 mM. The incubation took place for 2 hours at 30° C. The enzyme activity was then determined as described under 1.4.
The reaction conditions were selected with a view to the pH stability of peptide amidase from Xanthomonas maltophilia.
In order to stop the reaction 100 μl of the reaction solution was removed, compounded with 100 μl glacial acetic acid and filled with 1.4 ml HPLC mobile solvent. An aliquot of 20 μl was analyzed by HPLC. The conditions for the HPLC analysis of Z-Gly-Tyr-NH2 were as follows: […]

`O=S(=O)(F)Cc1ccccc1` [Phenylmethane sulfonyl fluoride]: the “inhibition by inhibitors from serine proteases” value in assay [1] is listed as “Slight inhibition”. In addition, the “inhibition of the microbial peptide amidase (serine groups)” value in assay [2] is “Inhibition”. In assay [2] (potential inhibitor 10 mM in the test, preincubation 1 h 30° C., Z-Gly-Tyr-NH2 10 mM, 2.5 h), this compound returned a residual activity of 58%.
`NC(=O)[C@H](Cc1ccc(O)cc1)NC(=O)CNC(=O)OCc1ccccc1` [Z-Gly-Tyr-NH2] (Cbz-Gly-Tyr-NH2): the vmax in assay [3] was determined as 0.53 U/mg BSAeq.

The residual activity is the share of the control activity or signal that is left under treatment. Low readings indicate little activity left, high ones much activity left.
